The values that follow come from patent US20090270394A1, “CYCLYLAMINE DERIVATIVES AS CALCIUM CHANNEL BLOCKERS” (priority 2008, published 2009).

One may read the IC50 as the concentration that gives 50% inhibition.

The target of one test is T1, Human Cav2.2 channels (Homo sapiens, UniProt Q00975).
T1 construct: expressed in transfected cells
The experiment in a line: Fluorescent assay for Cav2.2 channels using potassium depolarization to initiate channel opening. The test is classed as cell-based. The following applies: for IC50: 30 mM K (block of open and inactivated channels), read-out: Cav 2.2 Activity IC50 at 30 mM K; for inhibition at 10 µM: read-out: Cav 2.2 Activity % Inh at 10 μM; for inhibition at 30 µM: read-out: Cav 2.2 Activity % Inh at 30 μM. Put shortly: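 HEK293 cells stably expressing human Cav2.2 with alpha2-delta and beta subunits plus Kir2.3, dye-loaded, then held 30 min at 25° C. in 4, 12, 25 or 30 mM K+ pre-polarization buffer with compound.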

A further test concerns T-type calcium channels. The following applies: cited from earlier work.

T1 sequence (Q00975 whole entry): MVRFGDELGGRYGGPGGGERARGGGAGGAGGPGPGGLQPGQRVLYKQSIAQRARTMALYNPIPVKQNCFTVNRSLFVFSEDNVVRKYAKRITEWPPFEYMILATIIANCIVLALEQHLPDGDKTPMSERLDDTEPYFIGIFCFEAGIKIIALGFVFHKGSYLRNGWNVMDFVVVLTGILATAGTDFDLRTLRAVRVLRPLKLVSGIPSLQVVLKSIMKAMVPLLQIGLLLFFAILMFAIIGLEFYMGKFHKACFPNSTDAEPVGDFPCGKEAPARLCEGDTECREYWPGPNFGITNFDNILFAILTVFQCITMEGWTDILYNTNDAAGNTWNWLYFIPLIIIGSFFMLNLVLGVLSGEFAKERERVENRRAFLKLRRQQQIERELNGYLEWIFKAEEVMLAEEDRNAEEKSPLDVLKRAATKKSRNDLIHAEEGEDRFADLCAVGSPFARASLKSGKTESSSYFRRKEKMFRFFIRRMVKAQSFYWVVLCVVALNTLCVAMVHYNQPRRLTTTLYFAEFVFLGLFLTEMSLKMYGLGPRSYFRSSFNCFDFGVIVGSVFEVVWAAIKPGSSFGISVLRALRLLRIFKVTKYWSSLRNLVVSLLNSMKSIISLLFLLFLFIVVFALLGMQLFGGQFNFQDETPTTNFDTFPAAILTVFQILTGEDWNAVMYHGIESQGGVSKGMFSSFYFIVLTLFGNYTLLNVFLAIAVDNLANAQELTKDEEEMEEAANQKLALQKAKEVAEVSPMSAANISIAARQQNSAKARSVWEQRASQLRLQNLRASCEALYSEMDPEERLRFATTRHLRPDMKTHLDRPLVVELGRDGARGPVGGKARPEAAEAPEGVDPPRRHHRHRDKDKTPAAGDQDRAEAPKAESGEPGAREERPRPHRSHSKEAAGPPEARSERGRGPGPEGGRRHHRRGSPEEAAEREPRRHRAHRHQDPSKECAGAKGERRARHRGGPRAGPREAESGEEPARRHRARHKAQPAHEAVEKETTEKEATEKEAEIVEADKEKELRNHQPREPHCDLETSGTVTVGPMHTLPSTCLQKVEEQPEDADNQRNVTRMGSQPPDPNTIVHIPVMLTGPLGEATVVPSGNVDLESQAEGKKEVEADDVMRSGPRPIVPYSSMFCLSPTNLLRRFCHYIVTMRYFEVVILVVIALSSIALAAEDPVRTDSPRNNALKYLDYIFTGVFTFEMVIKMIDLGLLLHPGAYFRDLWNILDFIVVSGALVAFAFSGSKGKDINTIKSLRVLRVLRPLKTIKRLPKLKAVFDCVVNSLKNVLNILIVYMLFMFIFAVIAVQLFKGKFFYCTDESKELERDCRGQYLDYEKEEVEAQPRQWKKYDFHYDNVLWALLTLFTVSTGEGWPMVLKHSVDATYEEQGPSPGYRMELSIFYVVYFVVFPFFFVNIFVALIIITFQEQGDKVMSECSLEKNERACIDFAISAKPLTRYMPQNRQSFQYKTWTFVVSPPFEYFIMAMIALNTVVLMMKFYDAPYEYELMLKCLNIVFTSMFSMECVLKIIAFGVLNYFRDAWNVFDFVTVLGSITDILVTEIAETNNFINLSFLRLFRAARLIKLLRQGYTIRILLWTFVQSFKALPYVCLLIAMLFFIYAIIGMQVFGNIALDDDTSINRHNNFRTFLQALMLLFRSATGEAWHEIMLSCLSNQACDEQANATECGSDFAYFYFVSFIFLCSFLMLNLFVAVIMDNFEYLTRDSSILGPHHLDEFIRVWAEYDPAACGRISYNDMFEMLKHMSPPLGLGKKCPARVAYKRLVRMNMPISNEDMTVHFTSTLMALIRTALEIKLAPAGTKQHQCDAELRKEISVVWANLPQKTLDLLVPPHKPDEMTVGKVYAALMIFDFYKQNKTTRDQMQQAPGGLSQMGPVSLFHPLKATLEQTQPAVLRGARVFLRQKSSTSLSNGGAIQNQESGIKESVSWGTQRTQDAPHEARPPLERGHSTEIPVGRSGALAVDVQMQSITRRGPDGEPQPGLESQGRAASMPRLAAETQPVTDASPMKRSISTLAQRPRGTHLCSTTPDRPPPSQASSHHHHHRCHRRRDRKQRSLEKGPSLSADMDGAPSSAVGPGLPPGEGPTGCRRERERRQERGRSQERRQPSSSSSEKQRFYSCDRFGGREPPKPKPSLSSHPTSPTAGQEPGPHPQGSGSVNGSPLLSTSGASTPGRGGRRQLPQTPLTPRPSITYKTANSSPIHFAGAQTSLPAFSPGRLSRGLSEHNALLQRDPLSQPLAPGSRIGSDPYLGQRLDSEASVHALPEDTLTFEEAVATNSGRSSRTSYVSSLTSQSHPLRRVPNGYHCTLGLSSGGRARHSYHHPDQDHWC
T1 sequence (P54289 25-1103 partner): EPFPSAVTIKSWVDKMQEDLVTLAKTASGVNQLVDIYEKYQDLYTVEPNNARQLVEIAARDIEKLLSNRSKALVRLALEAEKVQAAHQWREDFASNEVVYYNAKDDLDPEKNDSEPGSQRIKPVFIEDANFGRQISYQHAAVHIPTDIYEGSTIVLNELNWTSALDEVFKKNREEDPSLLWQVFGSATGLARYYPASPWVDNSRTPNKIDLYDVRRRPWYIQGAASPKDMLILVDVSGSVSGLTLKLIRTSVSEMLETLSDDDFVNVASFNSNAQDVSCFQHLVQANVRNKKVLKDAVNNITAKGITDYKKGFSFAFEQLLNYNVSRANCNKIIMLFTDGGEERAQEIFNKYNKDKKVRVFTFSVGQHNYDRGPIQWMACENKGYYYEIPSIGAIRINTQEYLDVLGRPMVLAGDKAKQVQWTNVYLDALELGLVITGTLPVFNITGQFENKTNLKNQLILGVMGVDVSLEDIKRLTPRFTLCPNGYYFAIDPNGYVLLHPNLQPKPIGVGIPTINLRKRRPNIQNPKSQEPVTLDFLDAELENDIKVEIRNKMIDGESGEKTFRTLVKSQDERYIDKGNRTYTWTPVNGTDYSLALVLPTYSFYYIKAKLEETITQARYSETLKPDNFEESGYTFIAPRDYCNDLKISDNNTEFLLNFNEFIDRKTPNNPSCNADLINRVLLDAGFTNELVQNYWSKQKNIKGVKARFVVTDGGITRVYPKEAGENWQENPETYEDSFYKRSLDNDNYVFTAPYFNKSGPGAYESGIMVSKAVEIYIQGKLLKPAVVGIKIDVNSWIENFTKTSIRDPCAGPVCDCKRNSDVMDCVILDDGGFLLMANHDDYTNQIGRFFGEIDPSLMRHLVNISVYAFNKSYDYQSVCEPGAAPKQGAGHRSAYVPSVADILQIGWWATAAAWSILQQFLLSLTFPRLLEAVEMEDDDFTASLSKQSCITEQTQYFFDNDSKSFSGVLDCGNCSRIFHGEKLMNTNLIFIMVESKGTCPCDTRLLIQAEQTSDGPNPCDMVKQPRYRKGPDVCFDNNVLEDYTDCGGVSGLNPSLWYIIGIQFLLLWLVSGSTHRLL
T1 sequence (P54284 whole entry partner): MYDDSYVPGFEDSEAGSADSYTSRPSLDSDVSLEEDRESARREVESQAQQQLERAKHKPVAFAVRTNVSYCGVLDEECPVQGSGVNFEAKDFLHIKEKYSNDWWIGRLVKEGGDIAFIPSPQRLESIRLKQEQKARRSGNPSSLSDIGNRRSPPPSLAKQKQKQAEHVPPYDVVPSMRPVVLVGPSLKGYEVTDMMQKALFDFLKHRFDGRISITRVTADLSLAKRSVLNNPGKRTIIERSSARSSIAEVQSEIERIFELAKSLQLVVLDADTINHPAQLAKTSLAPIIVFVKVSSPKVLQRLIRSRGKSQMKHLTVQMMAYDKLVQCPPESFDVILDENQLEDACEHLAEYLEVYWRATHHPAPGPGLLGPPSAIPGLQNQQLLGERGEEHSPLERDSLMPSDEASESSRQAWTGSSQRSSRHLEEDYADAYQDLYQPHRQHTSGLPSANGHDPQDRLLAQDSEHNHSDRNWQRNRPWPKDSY

Turning to “1-(2,6-di-tert-butylisonicotinimidamido)-N-((5-methylisoxazol-3-yl)methyl)cyclopentanecarboxamide [Compound 90]”, on Human Cav2.2 channels (10 μM compound), the “Cav 2.2 Activity % Inh at 10 μM” value was 90.95%. Moreover, the “Cav 2.2 Activity % Inh at 30 μM” value at Human Cav2.2 channels (30 μM compound) turned out to be 98.53%. The IC50 on Human Cav2.2 channels is 77.2 nM.
For the compound `Cc1cc(CNC(=O)C2(NC(=O)c3cc(C(C)(C)C)c(O)c(C(C)(C)C)c3)CC2)no1` [Compound 116, 3,5-di-tert-butyl-4-hydroxy-N-(1-((5-methylisoxazol-3-yl)methylcarbamoyl)cyclopropyl)benzamide], the inhibition at 10 µM on Human Cav2.2 channels (10 μM compound) came out at 92.5%. Also, on Human Cav2.2 channels (30 μM compound), the inhibition at 30 µM came out at 98%. In addition, on Human Cav2.2 channels, the IC50 came out at 943 nM.
`CC(C)(C)c1cc(C(=O)NC2(C(=O)Nc3ccccn3)CC2)cc(C(C)(C)C)n1` [Compound 20, 2,6-di-tert-butyl-N-(1-(pyridin-2-ylcarbamoyl)cyclopropyl)isonicotinamide]: at Human Cav2.2 channels (10 μM compound), the inhibition at 10 µM came out at 100%. Also, the IC50 on Human Cav2.2 channels came out at 102 nM.
For the compound `COc1c(C(C)(C)C)cc(C(=O)NC2(C(=O)NCc3cc(C)n(C)n3)CCCCC2)cc1C(C)(C)C` [Compound 85, 3,5-di-tert-butyl-N-(1-((1,5-dimethyl-1H-pyrazol-3-yl)methylcarbamoyl)cyclohexyl)-4-methoxybenzamide], on Human Cav2.2 channels (10 μM compound), the inhibition at 10 µM came to 87.7%. Also, on Human Cav2.2 channels (30 μM compound), the inhibition at 30 µM was 93.2%. The IC50 on Human Cav2.2 channels was 26.7 nM.
In the same order, the values of `CC(C)(C#N)c1cccc(C(=O)NC2(C(=O)NCc3cccc(C(F)(F)F)c3)CCCCC2)c1` [Compound 124, 3-(2-cyanopropan-2-yl)-N-(1-(3-(trifluoromethyl)benzylcarbamoyl)cyclohexyl)benzamide] are 84.2%, 74% and 810 nM.
For `CC(C)(C)c1cc(CNC2(C(=O)NCc3ccccc3)CCCCC2)cc(C(C)(C)C)c1` [Compound 57, N-benzyl-1-(3,5-di-tert-butylbenzylamino)cyclohexanecarboxamide], in that order: 99.8%, 101% and 868 nM.
Take `COCC(=O)O[C@]1(CCN(C)CCCc2nc3ccccc3[nH]2)CCc2cc(F)ccc2[C@@H]1C(C)C` [Mibefradil]: in the test with T-type calcium channels, the “fold selective for T-type over L-type channels” value is reported as 10-30 fold.
With `CC(C)(C)c1cc(C(=O)NC2(C(=O)NCc3ccccc3)CCCCC2)cc(C(C)(C)C)n1` [Compound 56, N-(1-(benzylcarbamoyl)cyclohexyl)-2,6-di-tert-butylisonicotinamide], the inhibition at 10 µM at Human Cav2.2 channels (10 μM compound) worked out at 84.4%. Besides, the inhibition at 30 µM at Human Cav2.2 channels (30 μM compound) came out at 92.6%. The 50% inhibitory concentration (IC50) on Human Cav2.2 channels came out at 321 nM.
For the compound `CC(C)(C)NC(=O)C(C)(C)c1cc(C(=O)NC2(C(=O)NCc3cccc(C(F)(F)F)c3)CCCCC2)cc(C(C)(C)C(=O)NC(C)(C)C)c1` [Compound 76, 2,2′-(5-(1-(3-(trifluoromethyl)benzylcarbamoyl)cyclohexylcarbamoyl)-1,3-phenylene)bis(N-tert-butyl-2-methylpropanamide)], the inhibition at 10 µM at Human Cav2.2 channels (10 μM compound) stood at 80.5%. For the same compound, the inhibition at 30 µM at Human Cav2.2 channels (30 μM compound) is 87.8%.
For `COc1c(C(C)(C)C)cc(C(=O)NC2(C(=O)Nc3ccccc3)CCCCC2)cc1C(C)(C)C` [Compound 96, 3,5-di-tert-butyl-4-methoxy-N-(1-(phenylcarbamoyl)cyclohexyl)benzamide], at Human Cav2.2 channels (10 μM compound), the inhibition at 10 µM stood at 77.7%. For the same compound, the inhibition at 30 µM at Human Cav2.2 channels (30 μM compound) is 82.6%. Moreover, the IC50 at Human Cav2.2 channels is 161 nM.
For `CC(C)(C)c1cc(C(=O)NC2(C(=O)NCc3ccc(F)cc3F)CCCCC2)cc(C(C)(C)C)c1` [Compound 50, 3,5-di-tert-butyl-N-(1-(2,4-difluorobenzylcarbamoyl)cyclohexyl)benzamide], in that order: 99.6%, 102% and 80.3 nM.
For the compound `CC(C)(C)c1cc(C(=O)NC2(C(=O)NCc3ccc(S(C)(=O)=O)cc3)CCCCC2)cc(C(C)(C)C)c1O` [Compound 112, 3,5-di-tert-butyl-4-hydroxy-N-(1-(4-(methylsulfonyl)benzylcarbamoyl)cyclohexyl)benzamide], on Human Cav2.2 channels (10 μM compound), the inhibition at 10 µM was found to be 96.7%. Also, the inhibition at 30 µM at Human Cav2.2 channels (30 μM compound) is 102%. For the same compound, on Human Cav2.2 channels, the IC50 was 138 nM.
Take `CC(C)(C)OC(=O)N1CCC(NC(=O)c2cc(C(C)(C)C)nc(C(C)(C)C)c2)(C(=O)O)CC1` [Compound 58, 1-(tert-butoxycarbonyl)-4-(2,6-di-tert-butylisonicotinamido)piperidine-4-carboxylic acid]: the inhibition at 10 µM on Human Cav2.2 channels (10 μM compound) is 37.6%. In addition, at Human Cav2.2 channels (30 μM compound), the inhibition at 30 µM came out at 77.9%.
For `Cc1cnc(CNC(=O)C2(NC(=O)c3cc(C(C)(C)C)nc(C(C)(C)C)c3)CCCC2)cn1` [Compound 91, 2,6-di-tert-butyl-N-(1-((5-methylpyrazin-2-yl)methylcarbamoyl)cyclopentyl)isonicotinamide], on Human Cav2.2 channels (10 μM compound), the inhibition at 10 µM amounted to 95.3%. Further, the inhibition at 30 µM on Human Cav2.2 channels (30 μM compound) stood at 96.1%. Further, the IC50 on Human Cav2.2 channels came out at 148 nM.
In the same order, the values of `CC(C)(C)c1cc(C(=O)NC2(C(=O)N3CCN(Cc4ccccc4)CC3)CCCCC2)cc(C(C)(C)C)n1` [Compound 69, N-(1-(4-benzylpiperazine-1-carbonyl)cyclohexyl)-2,6-di-tert-butylisonicotinamide] are 88.3%, 95.3% and 538 nM.
For `COc1c(C(C)(C)C)cc(C(=O)NC2(C(=O)NCc3cnc(C)cn3)CCCCC2)cc1C(C)(C)C` [Compound 88, 3,5-di-tert-butyl-4-methoxy-N-(1-((5-methylpyrazin-2-yl)methylcarbamoyl)cyclohexyl)benzamide], in that order: 96.3%, 96.7% and 14.2 nM.
For `COc1ccc(CNC(=O)C2(NC(=O)c3cc(C(C)(C)C)c(OC)c(C(C)(C)C)c3)CCCC2)cc1` [Compound 38, 3,5-di-tert-butyl-4-methoxy-N-(1-(4-methoxybenzylcarbamoyl)cyclopentyl)benzamide], in that order: 97.8%, 99% and 35.9 nM.
With `COc1c(C(C)(C)C)cc(C(=O)NC2(C(=O)N3CCCC3)CCCCC2)cc1C(C)(C)C` [Compound 30, 3,5-di-tert-butyl-4-methoxy-N-(1-(pyrrolidine-1-carbonyl)cyclohexyl)benzamide], the inhibition at 10 µM on Human Cav2.2 channels (10 μM compound) is 91.7%. Besides, the inhibition at 30 µM on Human Cav2.2 channels (30 μM compound) was found to be 93.4%. Further, the IC50 at Human Cav2.2 channels stood at 25.2 nM.
For `CC(C)(C)c1cc(C(=O)NC2(C(=O)NCc3nccs3)CCCCC2)cc(C(C)(C)C)n1` [Compound 80, 2,6-di-tert-butyl-N-(1-(thiazol-2-ylmethylcarbamoyl)cyclohexyl)isonicotinamide], in that order: 98.4%, 104% and 106 nM.
In the same order, the values of `Cc1cc(CNC(=O)C2(NC(=O)c3cc(C(C)(C)C)cc(C(C)(C)C)c3)CCCCC2)nn1C` [Compound 68, 3,5-di-tert-butyl-N-(1-((1,5-dimethyl-1H-pyrazol-3-yl)methylcarbamoyl)cyclohexyl)benzamide] are 98.4%, 94% and 64.9 nM.
Take `CC(C)(C)c1cc(C(=O)NC2(C(=O)NCc3cccc(S(C)(=O)=O)c3)CC2)cc(C(C)(C)C)c1O` [Compound 16, 3,5-di-tert-butyl-4-hydroxy-N-(1-(3-(methylsulfonyl)benzylcarbamoyl)cyclopropyl)benzamide]: the inhibition at 10 µM at Human Cav2.2 channels (10 μM compound) was 89.3%. Moreover, the inhibition at 30 µM on Human Cav2.2 channels (30 μM compound) stood at 93%.
In the case of `Cc1cnc(CNC(=O)C2(NC(=O)c3cc(C(C)(C)C)nc(C(C)(C)C)c3)CCCCC2)cn1` [Compound 81, 2,6-di-tert-butyl-N-(1-((5-methylpyrazin-2-yl)methylcarbamoyl)cyclohexyl)isonicotinamide], the inhibition at 10 µM at Human Cav2.2 channels (10 μM compound) turned out to be 87.8%. Further, the inhibition at 30 µM at Human Cav2.2 channels (30 μM compound) came out at 93.3%. Also, at Human Cav2.2 channels, the IC50 stood at 53.5 nM.
In the same order, the values of `CN(C)c1ccc(CNC(=O)C2(NC(=O)c3cc(C(C)(C)C)nc(C(C)(C)C)c3)CCCCC2)cc1` [Compound 77, 2,6-di-tert-butyl-N-(1-(4-(dimethylamino)benzylcarbamoyl)cyclohexyl)isonicotinamide] are 48.7%, 66.9% and 574 nM.
